Measurements: patent publication US12023333B2, “Phenyl-sulfamoyl.benzoyc acids as ERAP1 modulators” (GREY WOLF THERAPEUTICS LIMITED, priority 2019, dated 2024)
pIC50: −log10 of the molar value.

Biological target: T1, Purified ERAP1(37-941)-10His (ERAP1) (Homo sapiens, UniProt Q9NZ08)
T1 construct: Purified ERAP1(37-941)-10His (ERAP1); 10His (C)
Test: ERAP1 mediated hydrolysis of an amide substrate measured in a biochemical system (10-mer decapeptide substrate)
Conditions: 10-mer substrate, 23° C. for 1 h, excitation 279 nm and emission 355 nm; read-out: IC50 vs Decapeptide WRVYEKC(Dnp)ALK-acid (where Dnp is Dinitrophenyl maleimide) (10-mer)
Outline: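 ERAP1(37-941)-10His preincubated with compound in 25 mM Bis-tris propane, 0.05% HPMC, pH 7.75, then reacted 1 h at 23 °C with 10-mer WRVYEKC(Dnp)ALK (100 μM solution added in equal volume). Fluorescence read at ex 279/em 355 nm; IC50 from 4-parameter fit.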

T1 sequence (Q9NZ08 37-941): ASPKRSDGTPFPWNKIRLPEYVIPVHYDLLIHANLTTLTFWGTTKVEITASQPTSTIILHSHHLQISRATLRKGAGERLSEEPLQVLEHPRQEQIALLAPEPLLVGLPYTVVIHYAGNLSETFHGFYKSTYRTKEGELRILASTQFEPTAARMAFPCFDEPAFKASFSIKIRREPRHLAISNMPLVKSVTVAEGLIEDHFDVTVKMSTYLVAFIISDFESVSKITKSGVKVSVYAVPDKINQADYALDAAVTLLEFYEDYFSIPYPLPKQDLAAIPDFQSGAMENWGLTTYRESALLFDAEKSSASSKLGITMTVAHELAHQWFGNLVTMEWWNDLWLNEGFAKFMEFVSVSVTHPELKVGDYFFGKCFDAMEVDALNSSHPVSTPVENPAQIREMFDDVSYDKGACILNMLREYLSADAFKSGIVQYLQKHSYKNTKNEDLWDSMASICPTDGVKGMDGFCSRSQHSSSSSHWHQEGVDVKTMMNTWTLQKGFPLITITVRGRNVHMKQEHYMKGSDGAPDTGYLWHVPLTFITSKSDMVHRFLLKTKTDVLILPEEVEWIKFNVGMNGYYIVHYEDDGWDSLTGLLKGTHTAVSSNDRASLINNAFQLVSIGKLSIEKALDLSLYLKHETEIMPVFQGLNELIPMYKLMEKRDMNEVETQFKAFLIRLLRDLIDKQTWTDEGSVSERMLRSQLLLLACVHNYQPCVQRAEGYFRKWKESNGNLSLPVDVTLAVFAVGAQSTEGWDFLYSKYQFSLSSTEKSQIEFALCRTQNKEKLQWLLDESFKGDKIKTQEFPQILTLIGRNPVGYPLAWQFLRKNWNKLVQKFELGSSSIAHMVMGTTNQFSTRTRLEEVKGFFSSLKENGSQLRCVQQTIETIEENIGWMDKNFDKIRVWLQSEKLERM

SMILES	pIC50
COc1ccc(C(=O)O)cc1S(=O)(=O)Nc1cc(C(F)(F)F)ccc1-c1ccc(Cl)s1 [Example 87, 3-(N-(2-(5-chlorothiophen-2-yl)-5-(trifluoromethyl)phenyl)sulfamoyl)-4-methoxybenzoic acid]	> 6.30
N#Cc1ccc(-c2cccnn2)c(NS(=O)(=O)c2cc(C(=O)O)ccc2C2CC2)c1 [Example 165, 3-(N-(5-cyano-2-(pyridazin-3-yl)phenyl)sulfamoyl)-4-cyclopropylbenzoic acid]	> 6.30
CCc1ccc(C(=O)O)cc1S(=O)(=O)Nc1cc(S(C)(=O)=O)ccc1-c1ccccn1 [Example 71, 4-ethyl-3-(N-(5-(methylsulfonyl)-2-(pyridin-2-yl)phenyl)sulfamoyl)benzoic acid]	> 6.30
Cc1sncc1-c1ccc(-c2cccc(F)c2)c(NS(=O)(=O)c2cc(C(=O)O)ccc2C2CC2)c1 [Example 136, 4-cyclopropyl-3-(N-(3′-fluoro-4-(5-methylisothiazol-4-yl)-[1,1′-biphenyl]-2-yl)sulfamoyl)benzoic acid]	> 6.30
O=C(O)c1ccc(C2CC2)c(S(=O)(=O)Nc2cc(C(F)(F)F)ccc2-c2ccccn2)c1 [Example 72, 4-cyclopropyl-3-(N-(2-(pyridin-2-yl)-5-(trifluoromethyl)phenyl)sulfamoyl)benzoic acid]	> 6.30
N#Cc1ccc(-c2ccc(F)s2)c(NS(=O)(=O)c2cc(C(=O)O)ccc2C2CC2)c1 [Example 102, 3-(N-(5-cyano-2-(5-fluorothiophen-2-yl)phenyl)sulfamoyl)-4-cyclopropylbenzoic acid]	> 6.30
CS(=O)(=O)c1ccc(-c2cccc(F)c2)c(NS(=O)(=O)c2cc(C(=O)O)ccc2C2CC2)c1 [Example 93, 4-cyclopropyl-3-(N-(3′-fluoro-4-(methylsulfonyl)-[1,1′-biphenyl]-2-yl)sulfamoyl)benzoic acid]	> 6.30
N#Cc1cc(NS(=O)(=O)c2cc(C(=O)O)ccc2C2CC2)c(-c2cscn2)cc1Cl [Example 178, 3-(N-(4-chloro-5-cyano-2-(thiazol-4-yl)phenyl)sulfamoyl)-4-cyclopropylbenzoic acid]	> 6.30
N#Cc1cc(NS(=O)(=O)c2cc(C(=O)O)ccc2C2CC2)c(-c2cccc(F)c2)cc1Cl [Example 133, 3-(N-(5-chloro-4-cyano-3′-fluoro-[1,1′-biphenyl]-2-yl)sulfamoyl)-4-cyclopropylbenzoic acid]	> 6.30
N#Cc1ccc(-c2ccc(C#N)s2)c(NS(=O)(=O)c2cc(C(=O)O)ccc2C2CC2)c1 [Example 126, 3-(N-(5-cyano-2-(5-cyanothiophen-2-yl)phenyl)sulfamoyl)-4-cyclopropylbenzoic acid]	> 6.30
Cc1oncc1-c1ccc(-c2ccc(Cl)s2)c(NS(=O)(=O)c2cc(C(=O)O)ccc2C2CC2)c1 [Example 164, 3-(N-(2-(5-chlorothiophen-2-yl)-5-(5-methylisoxazol-4-yl)phenyl)sulfamoyl)-4-cyclopropylbenzoic acid]	> 6.30
CCc1ccc(C(=O)O)cc1S(=O)(=O)Nc1cc(C#N)ccc1-c1ccc(F)s1 [Example 101, 3-(N-(5-cyano-2-(5-fluorothiophen-2-yl)phenyl)sulfamoyl)-4-ethylbenzoic acid]	> 6.30
N#Cc1cc(NS(=O)(=O)c2cc(C(=O)O)ccc2C2CC2)c(-c2ccccn2)cc1Cl [Example 132, 3-(N-(4-chloro-5-cyano-2-(pyridin-2-yl)phenyl)sulfamoyl)-4-cyclopropylbenzoic acid]	> 6.30
O=C(O)c1ccc(C2CC2)c(S(=O)(=O)Nc2cc(-n3cnnn3)c(Cl)cc2-n2cccc2)c1 [Example 206, 3-(N-(4-chloro-2-(pyrrol-1-yl)-5-(tetrazol-1-yl)phenyl)sulfamoyl)-4-cyclopropylbenzoic acid]	> 6.30
CS(=O)(=O)c1cc(NS(=O)(=O)c2cc(C(=O)O)ccc2C2CC2)c(-c2ccccn2)cc1Cl [Example 171, 3-(N-(4-chloro-5-(methylsulfonyl)-2-(pyridin-2-yl)phenyl)sulfamoyl)-4-cyclopropylbenzoic acid]	> 6.30

Next, values leading:

pIC50	SMILES
> 6.30	N#Cc1ccc(-c2ccc(C(F)(F)F)cc2NS(=O)(=O)c2cc(C(=O)O)ccc2C2CC2)s1 [Example 127, 3-(N-(2-(5-cyanothiophen-2-yl)-5-(trifluoromethyl)phenyl)sulfamoyl)-4-cyclopropylbenzoic acid]
> 5.30	COc1ccc(C(=O)O)cc1S(=O)(=O)Nc1cc(C(F)(F)F)ccc1-c1cc(C)nn1C [Example 4, 3-(N-(2-(1,3-dimethylpyrazol-5-yl)-5-(trifluoromethyl)phenyl)sulfamoyl)-4-methoxybenzoic acid]
> 6.30	Cc1ccc(-c2ccc(C(F)(F)F)cc2NS(=O)(=O)c2cc(C(=O)O)ccc2C2CC2)s1 [Example 86, 4-cyclopropyl-3-(N-(2-(5-methylthiophen-2-yl)-5-(trifluoromethyl)phenyl)sulfamoyl)benzoic acid]
> 6.30	O=C(O)c1ccc(C2CC2)c(S(=O)(=O)Nc2cc(-c3ccns3)c(F)cc2-n2cccc2)c1 [Example 198, 4-cyclopropyl-3-(N-(4-fluoro-5-(isothiazol-5-yl)-2-(pyrrol-1-yl)phenyl)sulfamoyl)benzoic acid]
< 5.30	COc1ccc(C(=O)O)cc1S(=O)(=O)Nc1cc(C(F)(F)F)ccc1-n1cncn1 [Example 28, 3-(N-(2-(1,2,4-triazol-1-yl)-5-(trifluoromethyl)phenyl)sulfamoyl)-4-methoxybenzoic acid]
> 6.30	Cc1oncc1-c1ccc(-c2ccc(F)s2)c(NS(=O)(=O)c2cc(C(=O)O)ccc2C2CC2)c1 [Example 160, 4-cyclopropyl-3-(N-(2-(5-fluorothiophen-2-yl)-5-(5-methylisoxazol-4-yl)phenyl)sulfamoyl)benzoic acid]
> 5.30	CC(C)(C)c1ccc(C(=O)O)cc1S(=O)(=O)Nc1cc(C#N)ccc1-c1ccccn1 [Example 173, 4-(tert-butyl)-3-(N-(5-cyano-2-(pyridin-2-yl)phenyl)sulfamoyl) benzoic acid]
> 6.30	CCc1ccc(C(=O)O)cc1S(=O)(=O)Nc1cc(C(F)(F)F)ccc1-n1cccn1 [Example 31, 3-(N-(2-(pyrazol-1-yl)-5-(trifluoromethyl)phenyl)sulfamoyl)-4-ethylbenzoic acid]
> 6.30	N#Cc1ccc(-c2ccc(Cl)s2)c(NS(=O)(=O)c2cc(C(=O)O)ccc2C2CC2)c1 [Example 111, 3-(N-(2-(5-chlorothiophen-2-yl)-5-cyanophenyl)sulfamoyl)-4-cyclopropylbenzoic acid]
> 6.30	COc1ccc(C(=O)O)cc1S(=O)(=O)Nc1cc(C(F)(F)F)ccc1-c1ccc(F)cc1 [Example 12, 3-(N-(4′-fluoro-4-(trifluoromethyl)-[1,1′-biphenyl]-2-yl)sulfamoyl)-4-methoxybenzoic acid]
> 6.30	CCc1ccc(C(=O)O)cc1S(=O)(=O)Nc1cc(S(C)(=O)=O)ccc1-c1ccc(Cl)s1 [Example 89, 3-(N-(2-(5-chlorothiophen-2-yl)-5-(methylsulfonyl)phenyl)sulfamoyl)-4-ethylbenzoic acid]
> 6.30	CCc1ccc(C(=O)O)cc1S(=O)(=O)Nc1cc(C(F)(F)F)c(Cl)cc1-n1cccc1 [Example 131, 3-(N-(4-chloro-2-(pyrrol-1-yl)-5-(trifluoromethyl)phenyl)sulfamoyl)-4-ethylbenzoic acid]
> 6.30	CCc1ccc(C(=O)O)cc1S(=O)(=O)Nc1cc(C(F)(F)F)ccc1-c1cccc(F)c1 [Example 24, 4-ethyl-3-(N-(3′-fluoro-4-(trifluoromethyl)-[1,1′-biphenyl]-2-yl)sulfamoyl) benzoic acid]
> 6.30	COc1ccc(C(=O)O)cc1S(=O)(=O)Nc1cc(C(F)(F)F)ccc1-c1ccco1 [Example 23, 3-(N-(2-(furan-2-yl)-5-(trifluoromethyl)phenyl)sulfamoyl)-4-methoxybenzoic acid]
> 5.30	COc1cccc(-c2ccc(C(F)(F)F)cc2NS(=O)(=O)c2cc(C(=O)O)ccc2OC)c1 [Example 17, 4-methoxy-3-(N-(3′-methoxy-4-(trifluoromethyl)-[1,1′-biphenyl]-2-yl)sulfamoyl)benzoic acid]
> 6.30	N#Cc1ccc(-n2cccc2)c(NS(=O)(=O)c2cc(C(=O)O)ccc2C2CC2)c1 [Example 109, 3-(N-(5-cyano-2-(pyrrol-1-yl)phenyl)sulfamoyl)-4-cyclopropylbenzoic acid]
> 6.30	O=C(O)c1ccc(C2CC2)c(S(=O)(=O)Nc2cc(-c3ccns3)c(Cl)cc2-c2ccccn2)c1 [Example 191, 3-(N-(4-chloro-5-(isothiazol-5-yl)-2-(pyridin-2-yl)phenyl)sulfamoyl)-4-cyclopropylbenzoic acid]
> 6.30	CS(=O)(=O)c1ccc(-n2cccc2)c(NS(=O)(=O)c2cc(C(=O)O)ccc2C2CC2)c1 [Example 110, 4-cyclopropyl-3-(N-(5-(methylsulfonyl)-2-(pyrrol-1-yl)phenyl)sulfamoyl) benzoic acid]
> 6.30	CCc1ccc(C(=O)O)cc1S(=O)(=O)Nc1cc(S(C)(=O)=O)ccc1-c1ccc(C#N)s1 [Example 120, 3-(N-(2-(5-cyanothiophen-2-yl)-5-(methylsulfonyl)phenyl)sulfamoyl)-4-ethylbenzoic acid]
> 6.30	COc1ccc(C(=O)O)cc1S(=O)(=O)Nc1cc(C#N)ccc1-c1ccc(C#N)s1 [Example 119, 3-(N-(5-cyano-2-(5-cyanothiophen-2-yl)phenyl)sulfamoyl)-4-methoxybenzoic acid]
> 6.30	Cc1oncc1-c1cc(NS(=O)(=O)c2cc(C(=O)O)ccc2C2CC2)c(-n2cccc2)cc1Cl [Example 205, 3-(N-(4-chloro-5-(5-methylisoxazol-4-yl)-2-(pyrrol-1-yl)phenyl)sulfamoyl)-4-cyclopropylbenzoic acid]
